How the values were obtained:
[1] = Spontaneous (uncatalyzed, background) hydrolysis; type: physicochemical; conditions: pH 8.0, 50 mM phosphate; time (h): 17 2; 18 24; 20 0.33; 5 0.33; 22 3.5
Experimental: The practical range of pH for the assay is limited by the rapid spontaneous rate of hydrolysis of an ester Compound 5 above pH 8.0. Initially, the ester was used at a concentration that was about four-fold greater than that of the protein, and the mixture was incubated at pH 7.2 for 10 minutes. Any change in fluorescence above background was noted.
The lack of spectroscopic distinction between such esters and their hydrolysis products recommended a chromatographic analysis of the process. Referring to FIG. 3, a mixture of Compound 7 (5 uM) and the monoclonal antibody from hybridoma P3 6D4 (0.1 uM) in phosphate buffer (50 mM, pH 8.0) was analyzed over time by high performance liquid chromatography (HPLC). The accelerated hydrolysis of the ester was apparent from the decrease of its peak and the concurrent increase in two new peaks that correspond with the expected products. Under these conditions, the ester is completely consumed in 60-80 minutes during which time the background rate accounts for about 12 to 16 percent hydrolysis. The chromatographic profile is the same as that produced by treatment with hog liver esterase.
^c The rate constants were determined spectrophotometrically (at 245
nm) by measuring initial rates at five concentrations of ester.
(§1) ^1 Preliminary initial hydrolyses shown as the percentage of admixed
(§2) reactant ligand consumed for catalyzed and spontaneous hydrolyses. "--" =
(§3) No hydrolysis observed. "NT" = Not tried. All reactions were carried out
(§4) at pH 8.0 in a 50 mM phosphate buffer unless otherwise noted. Hydrolytic
(§5) percentages were determined by HPLC using a Hitachi model 655A12 liquid
(§6) chromatograph with a C18 Vydac 201TP54 column, except as noted below.
(§7) Mixtures of acetonitrile a nd water containing 0.1 percent trichloroaceti
(§8) acid [28:72-50:50 (v/v)] were used as elutant. Hydrolyses of Compounds 5
(§9) and 20 were assayed using fluorescence data.
(§10) ^5 Spontaneous hydrolytic percentages for the time period indicated.
Reaction kinetics were studied using three reactant ligands as substrates for monoclonal receptors 37G2 and 22F5. Data from initial rates were consistent with Michaelis-Menten reaction mechanism for a usual enzyme-substrate system. Initial rates were followed using at 271 nm using a U.V.-visible spectorphotometer for Compound 17, and a fluorescence spectrometer for Compounds 5 and 20, using an excitation wavelength of 355 nm and an emission wavelength of 455 nm for both compounds.

21G2 = assay: Hydrolysis of reactant ligands by receptor 21G2; type: biochemical, mouse; conditions: pH 8.0; receptor/ligand uM, time h: 17 1/10, 2; 18 2/10, 24; 20 2/10, 0.33; 5 1/5, 0.33; 22 5/10, 3.5; preliminary
Experimental: as §1, §2, §3, §4, §5, §6, §7, §8, §9
(§11) ^2 Concentrations of receptor molecules (Rec.) and reactant ligands
(§12) (Lig.) in micromolar units, presuming a molecular weight of 150,000
(§13) daltons for each receptor molecule.
(§14) ^3 Reactant ligand (Lig.) used as substrate.
(§15) ^4 Time in hours that the reaction was permitted to take place.
as §10
(§16) ^6 Reaction carried out at pH 7.2 in a 50 mM phosphate buffer.

7E5 = assay: Hydrolysis of reactant ligands by receptor 7E5; type: biochemical, mouse; conditions: pH 8.0; receptor/ligand uM, time h: 17 1/10, 2; 18 2/10, 24; 20 2/10, 0.33; 5 1/5, 0.33; 22 5/10, 3.5; preliminary
Experimental: as §1, §2, §3, §4, §5, §6, §7, §8, §9, §11, §12, §13, §14, §15, §10, §16

37G2 = assay: Hydrolysis of reactant ligands by receptor 37G2; type: biochemical, mouse; conditions: pH 8.0; receptor/ligand uM, time h: 17 1/10, 2; 18 2/10, 24; 20 2/10, 0.33; 5 1/5, 0.33; 22 5/10, 3.5; preliminary
Experimental: as §1, §2, §3, §4, §5, §6, §7, §8, §9, §11, §12, §13, §14, §15, §10, §16

13E10 = assay: Hydrolysis of reactant ligands by receptor 13E10; type: biochemical, mouse; conditions: pH 8.0; receptor/ligand uM, time h: 17 1/10, 2; 18 2/10, 24; 20 2/10, 0.33; 5 1/5, 0.33; 22 5/10, 3.5; preliminary
Experimental: as §1, §2, §3, §4, §5, §6, §7, §8, §9, §11, §12, §13, §14, §15, §10, §16

1209 = assay: Hydrolysis of reactant ligands by receptor 12C9 (column head prints 1209); type: biochemical, mouse; conditions: pH 8.0; receptor/ligand uM, time h: 17 1/10, 2; 18 2/10, 24; 20 2/10, 0.33; 5 1/5, 0.33; 22 5/10, 3.5; preliminary
Experimental: as §1, §2, §3, §4, §5, §6, §7, §8, §9, §11, §12, §13, §14, §15, §10, §16

44A2 = assay: Hydrolysis of reactant ligands by receptor 44A2; type: biochemical, mouse; conditions: pH 8.0; receptor/ligand uM, time h: 17 1/10, 2; 18 2/10, 24; 20 2/10, 0.33; 5 1/5, 0.33; 22 5/10, 3.5; preliminary
Experimental: as §1, §2, §3, §4, §5, §6, §7, §8, §9, §11, §12, §13, §14, §15, §10, §16

17G8 = assay: Hydrolysis of reactant ligands by receptor 17G8; type: biochemical, mouse; conditions: pH 8.0; receptor/ligand uM, time h: 18 2/10, 24; 20 2/10, 0.33; 5 1/5, 0.33; 22 5/10, 3.5; preliminary
Experimental: as §1, §2, §3, §4, §5, §6, §7, §8, §9, §11, §12, §13, §14, §15, §10, §16

22F5 = assay: Hydrolysis of reactant ligands by receptor 22F5; type: biochemical, mouse; conditions: pH 8.0; receptor/ligand uM, time h: 17 1/10, 2; 18 2/10, 24; 20 2/10, 0.33; 5 1/5, 0.33; 22 5/10, 3.5; preliminary
Experimental: as §1, §2, §3, §4, §5, §6, §7, §8, §9, §11, §12, §13, §14, §15, §10, §16

[2] = test system: monoclonal antibody P3 6D4; assay: Kinetics and inhibition of catalytic ester hydrolysis by monoclonal antibody P3 6D4, spectrophotometric at 245 nm; type: biochemical, mouse; conditions: picolinic acid alone or picolinic acid and zinc chloride
Experimental: FIG. 4 illustrates a Lineweaver-Burk plot for the hydrolysis of Compound 7 by anti-Compound 4 monoclonal antibody from hybridoma P3 6D4. Velocities were determined spectrophotometrically by measuring initial rates during the first linear portion of the reaction as described with reference to Table 2. The substrate concentrations were corrected for amounts consumed during initial equilibration. ( ) No inhibitor present. ( ) Inhibited by 50 nM phosphonate (Compound 3). ( ) Inhibited by 100 nM phosphonate (Compound 3).
In particular, an exemplary monoclonal receptor was produced by the standard hybridoma technology of Kohler et al., Nature, 256, 495 (1975). Specifically, female 129G1X^+ mice were immunized by intraperitoneal injection with an inoculum of 100 micrograms of conjugate (e.g., Compound 4i bound to KLH) in 300 microliters of a 1:1 mixture of phosphate buffered saline (PBS) pH 7.4 and complete Freund's adjuvant. Two weeks later, the mice were again injected in a like manner with 50 micrograms of the foregoing conjugate in 300 microliters of a 1:1 mixture of PBS (pH 7.4) and 10 mg/ml alum. After an additional eight weeks, the mice were immunized intravenously with 50 micrograms of the conjugate in 200 microliters of PBS (pH 7.4). The spleens were removed from the mice 4 days later, and the spleen cells were fused to myeloma cells.
Reaction kinetics were measured spectrophotometrically by following the absorption change at 245 nanometers. […] Kinetic parameters obtained with these substrates are shown in Table 2 along with the inhibition constants obtained with phosphonate (Compound 3). Under these conditions, the acceleration above the background rate is about 960-fold for Compound 7 and about 200-fold for Compound 8 (corrected for the background hydrolysis rate).
*The kinetic parameters shown in Table 2 are for the hydrolysis of esters
(Compounds 7 and 8) by monoclonal antibody P3 6D4. A PerkinElmer lambda 4
spectrophotometer, equipped with thermostatted cell holder, was used to
measure absorption changes at 245 nm. Cells containing the substrate at
concentrations of 0.5 to 50 micromolar in phosphate buffer (50 mM, pH 8.0
were preequilibrated at 25 degrees C. The concentration of active IgG in
stock solution was found by reacting with the coumarin ester (Compound 5)
and measuring the yield of hydroxycoumarin by fluorescence. The kinetic
run was initiated by addition of an aliquot of the antibody stock solutio
(in 50 mM phosphate buffer, pH 8.0) calculated to give 100 nM IgG. The
mixture was allowed to equilibrate for 2 to 3 minutes and the rate was
then measured during the subsequent 10 minutes. The absorption change for
complete hydrolysis was determined by treatment with esterase. Kinetic
parameters were obtained from L ineweaverBurk plots (see FIG. 4).
Inhibition constants were determined from a plot of the slopes with at
least four inhibitor concentrations of Compound 3. The data were analyzed

[3] = test system: monoclonal receptor P3 6D4; assay: Stoichiometric transacylation reaction of monoclonal receptor P3 6D4 with coumarin ester Compound 5 (fluorescence) and its inhibition/inactivation; type: biochemical, mouse; conditions: up to 100 micromolar added zinc and picolinic acid; EDTA concentration not given
Experimental: A Perkin-Elmer LS-5 fluorescence spectrometer was operated at a fixed wavelength, using 355 nanometers (nm) for excitation and measuring the emission at 455 nm. A stock solution of the coumarin ester 5 was prepared in dioxane and was diluted to the desired concentrations in Tris-HCl (50 mM, pH 7) or sodium phosphate (50 mM, pH 4-9).
Reactions were run at 23 degrees C and were initiated by the addition of an aliquot of antibody solution (1 mg/ml) to substrate solutions to provide a final protein concentration of 100 nM. Final fluorescence values were determined by hydrolysis of the substrate with pig liver esterase. The observed reaction rate was corrected for spontaneous hydrolysis. Reaction kinetics were studied by measuring initial rates under pseudo-first order conditions. Active protein concentration was extrapolated from fluorescence values at the end of the reaction. The kinetic parameters were obtained by fitting the data to a hyperbolic curve and from double reciprocal plots. Inhibition constants were determined from the Lineweaver-Burk plot data with at least five inhibitor concentrations. All the data were studied by a least squares analysis.
Antibody preparations were inactivated without introducing fluorescent products by the addition of the activated ester (Compound 8) in dioxane to a solution of the IgG (5 mg/ml) in Tris-HCl (50 mM, pH 6.5) at a ratio of 5 moles of the ester (Compound 8) per mole IgG.
Protein modification was performed in an analogous manner, by the addition of a dioxane solution of the reagent at a known concentration to the antibody. The solution was incubated for 30 minutes before filtration through Sephadex G-25. The activity remaining was compared to control samples. Aliquots of IgG (5 mg/ml) inactivated with the ester (Compound 8) were diluted with four volumes of phosphate buffer (50 mM, pH 4-9, at intervals of 1 pH unit). Any pH change was recorded, and the sample was stored at 4 degrees C for 24 hours.
Initially, the ester was used at a concentration that was about four-fold greater than that of the protein, and the mixture was incubated at pH 7.2 for 10 minutes. Any change in fluorescence above background was noted.
The termination of the reaction is noted by the return of the rate of fluorescence increase to the background level.

Spon. (spontaneous hydrolysis) [1]	hydrolysis by 21G2 (21G2)	hydrolysis by 7E5 (7E5)	hydrolysis by 37G2 (37G2)	hydrolysis by 13E10 (13E10)	hydrolysis by 1209 1209	hydrolysis by 44A2 (44A2)	hydrolysis by 17G8 (17G8)	hydrolysis by 22F5 (22F5)	effect of additive on antibody-enhanced esterolysis of Compound 5 [3]	SMILES	effect of additive on rate of reaction of Compound 7 with antibody [2]
5 percentage of reactant ligand	19 percentage of reactant ligand	9 percentage of reactant ligand	45 percentage of reactant ligand	14 percentage of reactant ligand	12 percentage of reactant ligand	24 percentage of reactant ligand	22 percentage of reactant ligand	26 percentage of reactant ligand		CC(=O)Nc1ccc(CC(=O)Oc2ccccc2)cc1 [Compound 22]	
									No effect	O=C(O)c1ccccn1 [picolinic acid, reference compound]	no effect
